Patent publication US20040232089A1, “Biocidal compounds for treating water” (VANETTA S.p.A., priority 2003, published 2004)

Columns and labels:
[1] = Excerpt: As reminded often, the water solubility is an essential feature for the candidate biocide to be used successfully in the biological control of water.
[2] = Photo-degradability under daylight and UV; assay type: physicochemical; settings: 10 ppm in drinking water (pH 6,5-7,5)
Description: Similarly, the same behaviour is confirmed when evaluating the photo-degradability under daylight and UV (the irradiation test is carried out on a solution of 10 ppm in drinking water (pH 6,5-7,5)).

[3] = Hydrolysis test carried out in the dark; assay type: physicochemical
Excerpt: From the hydrolysis test carried out in the dark, MNB and MPB appear to be readily degradable at a pH compatible with environmental conditions.

[4] = Biodegradability OECD 301 A (92/69/EEC C4-A); settings: 7 days after the beginning of the test
Description: In fact, based on data available with respect to the most similar compounds to the menadione derivatives disclosed herein, one would expect a degradability in the range of 0% (percentage calculated based on the initial mass expressed in mg/l) typical of menadione (2-methyl-1,4-naphthalenedione) and 17% (assessed after 28 days) typical of menadione sodium bisulphite (which calculation was performed in accordance with the guidelines OECD301 A attached to directive EEC 92/69/EEC C4-A).
Finally biodegradability was also evaluated according to standard 92/69/EEC C4-A. From the data, both MNB and MPB result to have a remarkably better biodegradability than 2-methyl-1,4-naphthalenedione and particularly than MSB.

Row | SMILES | Sol. in H2O [1] | Light exp. Tot Degr. [2] | Light exp. ½ life [2] | ½ LIFE (hydrolysis) ([3]; pH 6, 8, in the dark) | ½ LIFE (hydrolysis) ([3]; pH 9, in the dark) | degradability relative to that of MSB [4]
1 | CC1(S(=O)(=O)O)CC(=O)c2ccccc2C1=O.Cc1cc(C)[nH]c(=O)n1 (centres unmarked) [MPB, menadione dimethylpyrimidinole bisulphite] | 10 gr/l | 48 h | 10 h | 48 h | <3 h | eight
2 | CC1=CC(=O)c2ccccc2C1=O [Menadione, 2-methyl-1,4-naphthalenedione, reference compound] | ins. | >5000 h | 1500 h | 1500 h | 550 h | –
3 | O=C1C=CC(=O)c2c(O)cccc21 [Juglone, 5-hydroxy-1,4-naphthalenedione, reference compound] | – | 48 h | – | >288 h | 15 h | –
